Data from PMC3462244 (2012).

Target: cannabinoid receptor subtype 2 (CB2) (Homo sapiens, UniProt P34972)
Test: [3H]CP-55940 radioligand competition binding, CHO-CB2 cell membranes

Chain of cannabinoid receptor subtype 2 (CB2) (P34972 whole entry): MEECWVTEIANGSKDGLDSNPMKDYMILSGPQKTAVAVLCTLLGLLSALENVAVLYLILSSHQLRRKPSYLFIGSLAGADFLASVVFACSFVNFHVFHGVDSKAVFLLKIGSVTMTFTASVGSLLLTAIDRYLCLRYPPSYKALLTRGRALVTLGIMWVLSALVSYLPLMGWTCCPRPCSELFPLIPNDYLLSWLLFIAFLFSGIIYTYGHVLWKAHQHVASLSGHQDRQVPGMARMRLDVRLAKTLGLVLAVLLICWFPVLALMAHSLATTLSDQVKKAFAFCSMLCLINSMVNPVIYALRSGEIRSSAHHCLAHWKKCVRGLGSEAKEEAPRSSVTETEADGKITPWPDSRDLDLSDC

COc1ccc2c(c1)CCC1=C2CC2C(=O)C1(C)CCC2(C)OC(C)=O (stereo not shown) [compound 76301, NSC76301]
Experimental pKi: 5.42 pKi

COC(=O)C1(C)CCCC2(C)c3cc(O)c(C(C)C)cc3CCC12 (stereo not shown) [compound 49888, NSC49888]
Ki: 6.7 nM

CC(=O)OC1CC2C3(C)CCC4C(C)(C)CCCC4(C)C3CC(O)C2(C)C2C1=COC2OC(C)=O (stereo not shown) [compound 369049, NSC369049]
Experimental pKi: 5.51 pKi

COc1ccc2c(c1)c1c(C)c3cnccc3c(C)c1n2CCCN1C(=O)c2ccccc2C1=O [compound 174122, NSC174122]
Experimental pKi: 5.59 pKi
